Test results as given in patent US20260102501A1, “ANTI-CANCER NUCLEAR HORMONE RECEPTOR-TARGETING COMPOUNDS” (Nuvation Bio Inc., priority 2022, published 2026).
Positions count from the first letter of the chain named. Where a name gives a salt, the structure may show the parent alone. Read-outs that look alike come from different tables or passages of the source.

Key:
[1] = target: T1, full-length androgen receptor (HEK293 cells stably expressing) (Homo sapiens, UniProt P10275); assay: AR antagonism assay (luciferase reporter)
T1 sequence (P10275 1-920): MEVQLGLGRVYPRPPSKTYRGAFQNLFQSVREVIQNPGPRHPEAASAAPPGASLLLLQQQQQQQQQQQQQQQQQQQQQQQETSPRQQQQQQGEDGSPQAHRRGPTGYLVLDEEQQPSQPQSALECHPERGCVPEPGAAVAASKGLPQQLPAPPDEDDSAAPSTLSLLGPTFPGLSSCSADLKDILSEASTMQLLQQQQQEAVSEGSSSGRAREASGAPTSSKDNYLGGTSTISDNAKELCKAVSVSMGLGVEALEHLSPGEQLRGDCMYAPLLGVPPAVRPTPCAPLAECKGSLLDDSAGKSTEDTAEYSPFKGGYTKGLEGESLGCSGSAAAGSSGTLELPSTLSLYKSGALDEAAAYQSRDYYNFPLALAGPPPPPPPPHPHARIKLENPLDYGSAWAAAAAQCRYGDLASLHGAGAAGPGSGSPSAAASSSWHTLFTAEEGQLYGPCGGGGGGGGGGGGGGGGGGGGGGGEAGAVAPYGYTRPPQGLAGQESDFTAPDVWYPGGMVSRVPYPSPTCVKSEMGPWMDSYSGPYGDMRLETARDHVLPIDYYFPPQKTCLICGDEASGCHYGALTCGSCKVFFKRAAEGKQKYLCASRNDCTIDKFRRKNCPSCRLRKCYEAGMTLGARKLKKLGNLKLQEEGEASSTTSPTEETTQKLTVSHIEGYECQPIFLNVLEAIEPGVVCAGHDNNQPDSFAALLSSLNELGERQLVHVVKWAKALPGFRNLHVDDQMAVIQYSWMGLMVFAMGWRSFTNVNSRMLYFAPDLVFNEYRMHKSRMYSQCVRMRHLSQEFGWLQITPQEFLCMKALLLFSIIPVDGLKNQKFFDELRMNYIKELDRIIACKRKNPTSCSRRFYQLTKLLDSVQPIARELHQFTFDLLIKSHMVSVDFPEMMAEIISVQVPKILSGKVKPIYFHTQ

[2] = system: T47D cells; assay: Cell viability assay (CellTiterGlo); format: cell-based; conditions: Homo sapiens, 144 h, 6 days incubation, CellTiterGlo, read-out: T47D (IC50)
[3] = system: IEC6 cells; assay: Cell viability assay (CellTiterGlo); conditions: Rattus norvegicus, IEC-6, 144 h, read-out: IEC-6 (IC50, nM)
Description: (§1) Cell viability assay: LNCap, 22Rv1, MCF7, MDAMB361, T47D, and IEC6 cells were seeded at a density of 500-2000 cells/well in 96 well plates, and a ‘T0’ (timepoint 0) was included along with the assay plate. The plates were then incubated at 37° C., 5% CO2 in a cell culture incubator overnight. On the next day, the ‘T0’ plate was assayed using CellTiterGlo (Promega, Inc) according to the manufacturer's instructions. The appropriate compounds were diluted in DMSO and added to the assay plate (final DMSO concentration of 0.1-0.2%) on the next day. The assay plates were incubated for 6 days at 37° C., 5% CO2. After the incubation period, the plates were assayed using CellTiterGlo (Promega, Inc) according to the manufacturer's instructions and luminescence was read on the En Vision plate reader. […] GraphPadPrism was used to analyze the data and determine GI50/IC50 values.

[4] = target: T2, AR (cytosol from LnCaP cells) (Homo sapiens, UniProt P10275, T878A); assay: AR binding assay (3H-R1881 displacement)
T2 sequence (P10275 1-920 T878A): T1 sequence (P10275 1-920) with T878A
Description: The plate was then centrifuged at 3000 rpm for 30 minutes at 4° C.

[5] = system: LNCap cells; assay: Cell viability assay (CellTiterGlo); format: cell-based; conditions: Homo sapiens, 144 h
[6] = target: T3, GR (cytosol from IM-9 cells) (Homo sapiens, UniProt P04150); assay: GR binding assay (3H-Dexamethasone displacement)
T3 sequence (P04150 1-777): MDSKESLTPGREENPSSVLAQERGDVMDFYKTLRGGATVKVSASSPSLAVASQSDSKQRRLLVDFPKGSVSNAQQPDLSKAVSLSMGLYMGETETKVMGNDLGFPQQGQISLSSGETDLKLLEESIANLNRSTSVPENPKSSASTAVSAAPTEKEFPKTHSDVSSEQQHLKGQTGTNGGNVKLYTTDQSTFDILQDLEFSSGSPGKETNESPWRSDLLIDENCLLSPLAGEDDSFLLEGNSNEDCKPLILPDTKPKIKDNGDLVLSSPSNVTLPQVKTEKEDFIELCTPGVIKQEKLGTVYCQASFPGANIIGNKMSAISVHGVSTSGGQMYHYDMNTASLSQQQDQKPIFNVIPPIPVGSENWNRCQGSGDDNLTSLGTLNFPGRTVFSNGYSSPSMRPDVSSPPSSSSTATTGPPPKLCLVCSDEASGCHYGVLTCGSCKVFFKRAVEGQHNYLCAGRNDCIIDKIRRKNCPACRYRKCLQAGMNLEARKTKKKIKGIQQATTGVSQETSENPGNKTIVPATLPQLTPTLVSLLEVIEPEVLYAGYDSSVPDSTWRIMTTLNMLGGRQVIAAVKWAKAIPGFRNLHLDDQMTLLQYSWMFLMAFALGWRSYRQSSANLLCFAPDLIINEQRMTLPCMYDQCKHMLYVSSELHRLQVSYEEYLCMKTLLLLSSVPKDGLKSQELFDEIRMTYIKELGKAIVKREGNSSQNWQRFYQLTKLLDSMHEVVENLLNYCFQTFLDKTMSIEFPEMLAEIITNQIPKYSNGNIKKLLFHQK

[7] = system: 22Rv1 cells; assay: Cell viability assay (CellTiterGlo); conditions: Homo sapiens, 22Rv1, 144 h, read-out: 22RV1 (IC50, nM)
Description: as §1

[8] = target: T4, ligand binding domain of the glucocorticoid receptor (HEK293 cells stably expressing) (Homo sapiens, UniProt P04150); assay: GR antagonism assay (luciferase reporter)
T4 sequence (P04150 524-758 limits assumed): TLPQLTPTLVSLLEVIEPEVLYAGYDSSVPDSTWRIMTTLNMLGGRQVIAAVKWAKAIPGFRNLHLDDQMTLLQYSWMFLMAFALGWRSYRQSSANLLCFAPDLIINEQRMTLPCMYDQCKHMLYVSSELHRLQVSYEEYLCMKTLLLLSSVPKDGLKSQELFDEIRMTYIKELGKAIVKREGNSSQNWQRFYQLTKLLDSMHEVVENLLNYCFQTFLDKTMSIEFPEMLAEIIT

[9] = 6 days incubation, CellTiterGlo, read-out: LNCap (IC50)

Structure (SMILES)	IC50 [1] [nM]	IC50 [2] [nM]	IC50 [3] [nM]	IC50 [4] [nM]	IC50 [5, 9] [nM]	IC50 [6] [nM]	IC50 [7] [nM]	IC50 [8] [nM]	IC50 ([5]; read-out: LNCap (IC50, nM)) [nM]
CC[C@@]1(O)C(=O)OCc2c1cc1n(c2=O)Cc2cc3c(CN4CCN(CC5CCN(c6ccc(C(=O)N[C@H]7CC[C@H](N(C)c8ccc(C#N)c(Cl)c8)CC7)nn6)CC5)CC4)c(OC)ccc3nc2-1 [Compound 40, N-((1r,4r)-4-((3-chloro-4-cyanophenyl)(methyl)amino)cyclohexyl)-6-(4-((4-(((S)-4-ethyl-4-hydroxy-9-methoxy-3,14-dioxo-3,4,12,14-tetrahydro-1H-pyrano[3′,4′:6,7]indolizino[1,2-b]quinolin-10-yl)methyl)piperazin-1-yl)methyl)piperidin-1-yl)pyridazine-3-carboxamide formic acid salt]	> 1000	10 to 100	101 to 1000	10 to 100	101 to 1000	–	–	–	–
CC[C@@]1(O)C(=O)OCc2c1cc1n(c2=O)Cc2c-1nc1cc(F)c(C)c3c1c2[C@@H](N(C)C(=O)COCCC(=O)N1CCC(CN(C)c2ccc([C@H]4C[C@@]5(C)[C@@H](CC[C@]5(OC(C)=O)C(C)=O)[C@@H]5CCC6=CC(=O)CCC6=C54)cc2)CC1)CC3 [Compound 54]	–	101 to 1000	101 to 1000	–	10 to 100	–	–	–	–
CC[C@@]1(OC(=O)N2CCN(CCCCCCN(C)c3ccc([C@H]4C[C@@]5(C)[C@@H](CC[C@]5(OC(C)=O)C(C)=O)[C@@H]5CCC6=CC(=O)CCC6=C54)cc3)CC2)C(=O)OCc2c1cc1n(c2=O)Cc2cc3cc(O)ccc3nc2-1 [Compound 57, (S)-4-ethyl-9-hydroxy-3,14-dioxo-3,4,12,14-tetrahydro-1H-pyrano[3′,4′:6,7]indolizino[1,2-b]quinolin-4-yl 4-(6-((4-((8S,11R,13S,14S,17R)-17-acetoxy-17-acetyl-13-methyl-3-oxo-2,3,6,7,8,11,12,13,14,15,16,17-dodecahydro-1H-cyclopenta[a]phenanthren-11-yl)phenyl)(methyl)amino)hexyl)piperazine-1-carboxylate]	–	10 to 100	> 1000	10 to 100	101 to 1000	< 10	–	–	–
CC[C@@]1(O)C(=O)OCc2c1cc1n(c2=O)Cc2cc3c(CN(C)C)c(OC(=O)N4CCN(CC5CCN(c6ccc(C(=O)N[C@H]7CC[C@H](N(C)c8ccc(C#N)c(Cl)c8)CC7)nn6)CC5)CC4)ccc3nc2-1 [Compound No. 18, (S)-10-((Dimethylamino)methyl)-4-ethyl-4-hydroxy-3,14-dioxo-3,4,12,14-tetrahydro-1H-pyrano[3′,4′:6,7]indolizino[1,2-b]quinolin-9-yl 4-((1-(6-(((1r,4r)-4-((3-chloro-4-cyanophenyl)(methyl)-amino)cyclohexyl)carbamoyl)pyridazin-3-yl)piperidin-4-yl)methyl)piperazine-1-carboxylate]	101 to 1000	–	101 to 1000	10 to 100	–	101 to 1000	10 to 100	101 to 1000	10 to 100
CC[C@@]1(O)C(=O)OCc2c1cc1n(c2=O)Cc2cc3c(CN(C)C)c(OC(=O)N4C[C@H](C)N(C(=O)C5CCN(c6ccc(C(=O)N[C@H]7CC[C@H](Oc8ccc(C#N)c(Cl)c8C)CC7)nn6)CC5)C[C@H]4C)ccc3nc2-1 [Compound No. 21, (S)-10-((Dimethylamino)methyl)-4-ethyl-4-hydroxy-3,14-dioxo-3,4,12,14-tetrahydro-1H-pyrano[3′,4′:6,7]indolizino[1,2-b]quinolin-9-yl (2R,5S)-4-(1-(6-(((1r,4r)-4-(3-chloro-4-cyano-2-methylphenoxy)cyclohexyl)carbamoyl)pyridazin-3-yl)piperidine-4-carbonyl)-2,5-dimethylpiperazine-1-carboxylate Formate]	> 1000	–	> 1000	< 10	–	> 1000	101 to 1000	> 1000	10 to 100
CC[C@@]1(O)C(=O)OCc2c1cc1n(c2=O)Cc2cc3c(CN(C)C)c(OC(=O)N4CCN(CCCCCCN(C)C5CCN(c6ccc(C(=O)N[C@H]7CC[C@H](Oc8ccc(C#N)c(Cl)c8C)CC7)nn6)CC5)CC4)ccc3nc2-1 [Compound No. 22, (S)-10-((Dimethylamino)methyl)-4-ethyl-4-hydroxy-3,14-dioxo-3,4,12,14-tetrahydro-1H-pyrano[3′,4′:6,7]indolizino[1,2-b]quinolin-9-yl 4-(6-((1-(6-(((1r,4r)-4-(3-chloro-4-cyano-2-methylphenoxy)-cyclohexyl)carbamoyl)pyridazin-3-yl)piperidin-4-yl)(methyl)amino)hexyl)piperazine-1-carboxylate Formate]	101 to 1000	–	–	< 10	–	101 to 1000	101 to 1000	101 to 1000	10 to 100
